According to patent US8598120B2 (Amylin Pharmaceuticals, LLC, priority 2004, dated 2013):
Square brackets hold non-standard residues; d marks the D form. Ends that are not written are not given here. * marks the point of attachment. Pentanoyl(4-Me) = CC(C)CCC(=O)*; Orn = NCCC[C@H](N)C(=O)O; Aib = CC(C)(N)C(=O)O; For = O=C*

Experiment: Food intake assay in overnight fasted mice
Assay type: in vivo
Details: 25 nmol/kg intraperitoneal
Description: Female NIH/Swiss mice (8-14 weeks old) were group housed with a 12:12 hour light:dark cycle. Water and a standard pelleted mouse chow diet are available ad libitum, except as noted. Animals are fasted starting at approximately 1500 hrs, 1 day prior to experiment.
The effects of treatment on food intake are expressed as % change relative to control.

Substance	cumulative food intake compared to vehicle, 30 min [%]	cumulative food intake compared to vehicle, 60 min [%]	cumulative food intake compared to vehicle, 120 min [%]	cumulative food intake compared to vehicle, 180 min [%]
Isocaproyl-STAVL(Aib)[K(For)]LSQEL(Aib)[K(For)]LQTYPRTNVGSNTY ({Pentanoyl(4-Me)}-STAVL[Aib]K(For)LSQEL[Aib]K(For)LQTYPRTNVGSNTY-NH2; SMILES CC(C)CCC(=O)N[C@@H](CO)C(=O)N[C@H](C(=O)N[C@@H](C)C(=O)N[C@H](C(=O)N[C@@H](CC(C)C)C(=O)NC(C)(C)C(=O)N[C@@H](CCCCNC=O)C(=O)N[C@@H](CC(C)C)C(=O)N[C@@H](CO)C(=O)N[C@@H](CCC(N)=O)C(=O)N[C@@H](CCC(=O)O)C(=O)N[C@@H](CC(C)C)C(=O)NC(C)(C)C(=O)N[C@@H](CCCCNC=O)C(=O)N[C@@H](CC(C)C)C(=O)N[C@@H](CCC(N)=O)C(=O)N[C@H](C(=O)N[C@@H](Cc1ccc(O)cc1)C(=O)N1CCC[C@H]1C(=O)N[C@@H](CCCNC(=N)N)C(=O)N[C@H](C(=O)N[C@@H](CC(N)=O)C(=O)N[C@H](C(=O)NCC(=O)N[C@@H](CO)C(=O)N[C@@H](CC(N)=O)C(=O)N[C@H](C(=O)N[C@@H](Cc1ccc(O)cc1)C(N)=O)[C@@H](C)O)C(C)C)[C@@H](C)O)[C@@H](C)O)C(C)C)[C@@H](C)O) [Compound 32]	−15	−21	−31	
KCNTATCVLGRLSQELHRLQTYPTNVGSEAF [Compound 85]	3	−16	−16	
KCNTATCVLGRLSQELHRLQNFVPRTNTGSNTY [Compound 90]	−55	−41	−24	−15
CSALSTCVLGRLSQELHRLQTYPRTNTGSNTY [Compound 26]	−29	−36	−47	
CSNASTCVLGRLSQELHRLQTYPRTNTGSNTY [Compound 21]	9	−5	−18	−18
KDNTATKVLGRLSQELHRLQTYPRTNTGSNTY [Compound 69]	−29	−31	−45	
KCNTATCVLGRLSQELHRLQTLPPTNVGSNTY [Compound 13]	−40	−33	−25	−24
KCNTATCVLGRLANFLHRLQTYPRTNTGSNTY [Compound 14]	−52	−36	−28	−33
Ac-ACNTATCVLGRLSQELHK(PEG5000)LQTYPRTNTGSNTY [Compound 47]	−5	−13	−27	
KCNTATCVLGRLSQELHRLQTLPRTNTGSNTY [Compound 11]	−52	−47	−38	−35
Isocaproyl-STAVL(Aib)[K(For)]LSQEL(Aib)[K(For)]LQTYPRTNTGSNTY ({Pentanoyl(4-Me)}-STAVL[Aib]K(For)LSQEL[Aib]K(For)LQTYPRTNTGSNTY-NH2; SMILES CC(C)CCC(=O)N[C@@H](CO)C(=O)N[C@H](C(=O)N[C@@H](C)C(=O)N[C@H](C(=O)N[C@@H](CC(C)C)C(=O)NC(C)(C)C(=O)N[C@@H](CCCCNC=O)C(=O)N[C@@H](CC(C)C)C(=O)N[C@@H](CO)C(=O)N[C@@H](CCC(N)=O)C(=O)N[C@@H](CCC(=O)O)C(=O)N[C@@H](CC(C)C)C(=O)NC(C)(C)C(=O)N[C@@H](CCCCNC=O)C(=O)N[C@@H](CC(C)C)C(=O)N[C@@H](CCC(N)=O)C(=O)N[C@H](C(=O)N[C@@H](Cc1ccc(O)cc1)C(=O)N1CCC[C@H]1C(=O)N[C@@H](CCCNC(=N)N)C(=O)N[C@H](C(=O)N[C@@H](CC(N)=O)C(=O)N[C@H](C(=O)NCC(=O)N[C@@H](CO)C(=O)N[C@@H](CC(N)=O)C(=O)N[C@H](C(=O)N[C@@H](Cc1ccc(O)cc1)C(N)=O)[C@@H](C)O)[C@@H](C)O)[C@@H](C)O)[C@@H](C)O)C(C)C)[C@@H](C)O) [Compound 31]	−11	−18	−23	
KCNTSTCATQRLANELVRLQTYPRTNVGSEAF [Compound 84]	−53	−40	−20	
KCNTAACVLGRLSQELHRLQTYPRTNTGSNTY [Compound 18]	−2	−7	−16	−21
KCNTATCVLGRLADALHRLQTYPRTNTGSNTY [Compound 95]	−81	−69	−34	−31
KCNTATCVLG[Orn]LSQELH[Orn]LQTYPRTNTGSNTY (cysteine pairing not given here) [Compound 61]	−23	−27	−32	
KCNTATCVLGRLADFLHRLQTYPRTNTGSNTY [Compound 88]	−64	−61	−39	−22
KCDTATCVTHRLAGLLSRSQTYPRTNTGSNTY [Compound 94]	−62	−42	−36	−31
KCNAATCVLGRLSQELHRLQTYPRTNTGSNTY [Compound 17]	−42	−30	−30	−25
KCNTATCVLGRLSQELHRLQTYPPTNTGSNTY [Compound 12]	−43	−39	−37	−32
KCNTATCVLGRLTDYLHRLQTYPRTNTGSNTY [Compound 105]	−83	−82	−52	
KCNTATCVLGRLADFLHRFHTFPRTNTGSNTY [Compound 108]	−70	−66	−38	
KCNTATCVLGRLSQELHRLQTYPRTNTGSGTP [Compound 25]	−29	−34	−45	
SCNTATCVLGRLADFLHRLQTYPRTNTGSNTY [Compound 97]	−78	−76	−60	−40
KCNTATCVLGRLADFLHRFQTFPRTNTGSNTY [Compound 107]	−84	−78	−47	
TCDTATCVLGRLSQELHRLQTYPRTNTGSNTY [Compound 114]	−17	−20	−25	
CNTATCVLGRLADFLHRLQTYPRTNTGSNTY [Compound 110]	−80	−72	−59	
KCNTATCLLQQLQKLLQKLKQYPRTNTGSNTY [Compound 35]	−20	−16	−18	
